Measurements published in patent US20140273008A1, “METHODS TO ASSESS ENZYME ACTIVITY USING MASS SPECTROMETRIC IMMUNOASSAY” (Molecular BioProducts, Inc., priority 2013, published 2014).

Target: T1, DPP4 (Homo sapiens, UniProt P27487)
T1 construct: from tissue; host or cells: human heparinized plasma
Test: DPP4 activity by MSIA: substrate conversion in human heparinized plasma spiked with recombinant DPP4 substrate peptide and inhibitor
Assay type: biochemical
Protocol: MSIA is a method by which sample purification and preparation occurs essentially simultaneously with sample aliquot and delivery. More specifically, a pipette tip, into which a specific volume of a clinical sample, human or animal, is drawn, contains an affinity reagent for selective preparation and immuno-affinity purification of the sample for subsequent direct mass spectrometer analysis; i.e., no intervening purification steps are performed. As shown schematically in FIG. 1, a clinical sample is drawn into a pipette tip containing an exogenous synthetic peptide substrate. The clinical sample and the exogenous peptide substrate are incubated to effect binding of the exogenous peptide substrate to a specific enzyme that is present in the clinical sample. After washes with buffer and water, the eluant is used for subsequent MS analysis. In this elution process, the eluate is dispensed into a microtiter plate for LC/MS application, directly into a LC/MS, or onto a target for MS insertion. Regardless of the MS technique applied, the eluant contained the exogenous peptide substrates, both the parent exogenous peptide substrate and the cleaved degraded product that was produced based on the activity of the enzyme contained in the clinical sample.
An exogenous synthetic peptide that is a substrate for the enzyme to be assessed is introduced into a clinical specimen, e.g., blood, urine, plasma, cerebrospinal fluid, lymphatic fluid, etc., i.e., the clinical sample is spiked or doped with the exogenous synthetic peptide substrate. For example, if the enzyme to be assessed is DPP4, the sample may be spiked with an exogenous peptide substrate for DPP4, e.g., recombinant GLP1, natriuretic peptide, etc. The exogenous synthetic peptide substrate that is added to the clinical sample in vitro is termed the parent substrate. The sample is then analyzed by MS, or is incubated for a set period of time before MS analysis. Incubation may be for any desired time period, and at any desired temperature, e.g., ambient temperature 19° C.-22° C., or at another desirable temperature, e.g., 37° C. Enzyme that is present in the clinical sample proteolytically cleaves the exogenous parent synthetic peptide substrate into a smaller fragment. The exogenous synthetic peptide substrates, both the parent (unreacted) and the cleaved (reacted) degraded product, are the targets that are monitored by subsequent MSIA. The method may be summarized as follows:
In one embodiment, a MS measurement of the exogenous synthetic peptide substrate in the sample (step (b)) is performed at a single time point, e.g., 15 min. In one embodiment, a MS measurement of the exogenous synthetic peptide substrate in the sample (step (b)) is performed over a time course, e.g., from 100% substrate to decreased or essentially depleted substrate. The time course may be performed utilizing sequential aliquot removal from the same clinical sample, or may be performed on multiple samples assayed in parallel. In all embodiments, the clinical samples are analyzed using MSIA, which selectively targets the substrate peptide, both reacted and non-reacted. MS detection allows for differentiation of the two forms, i.e., the reacted (cleaved, degraded) form of the substrate peptide, and unreacted parent form of the substrate peptide. It thus provides a method of analyzing the activity of an enzyme in a biological system.
In embodiments, clinical samples were treated with various inhibitors to determine the modulation, if any, of the endogenous enzyme activity. For example, if DPP4 was the enzyme whose activity was to be assessed, inhibitors were used that were known or speculated to inhibit DPP4 activity. Concentration studies were also performed (data not shown).
The following results were obtained with the leupeptin inhibitor:
The following results were obtained with the AEBSF inhibitor: […]

[1] = Human Plasma 1, 1 mM leupeptin, 0 min
[2] = Human Plasma 1, 1 mM leupeptin, 15 min
[3] = Human Plasma 1, 1 mM leupeptin, 30 min
[4] = Human Plasma 1, 1 mM leupeptin, 45 min
[5] = Human Plasma 1, 1 mM leupeptin, 60 min
[6] = Human Plasma 1, 1 mM leupeptin, 75 min
[7] = Human Plasma 1, 5 mM AEBSF, 0 min
[8] = Human Plasma 1, 5 mM AEBSF, 15 min
[9] = Human Plasma 1, 5 mM AEBSF, 30 min
[10] = Human Plasma 1, 5 mM AEBSF, 45 min
[11] = Human Plasma 1, 5 mM AEBSF, 60 min
[12] = Human Plasma 1, 5 mM AEBSF, 75 min

T1 sequence (P27487 39-766 limits assumed): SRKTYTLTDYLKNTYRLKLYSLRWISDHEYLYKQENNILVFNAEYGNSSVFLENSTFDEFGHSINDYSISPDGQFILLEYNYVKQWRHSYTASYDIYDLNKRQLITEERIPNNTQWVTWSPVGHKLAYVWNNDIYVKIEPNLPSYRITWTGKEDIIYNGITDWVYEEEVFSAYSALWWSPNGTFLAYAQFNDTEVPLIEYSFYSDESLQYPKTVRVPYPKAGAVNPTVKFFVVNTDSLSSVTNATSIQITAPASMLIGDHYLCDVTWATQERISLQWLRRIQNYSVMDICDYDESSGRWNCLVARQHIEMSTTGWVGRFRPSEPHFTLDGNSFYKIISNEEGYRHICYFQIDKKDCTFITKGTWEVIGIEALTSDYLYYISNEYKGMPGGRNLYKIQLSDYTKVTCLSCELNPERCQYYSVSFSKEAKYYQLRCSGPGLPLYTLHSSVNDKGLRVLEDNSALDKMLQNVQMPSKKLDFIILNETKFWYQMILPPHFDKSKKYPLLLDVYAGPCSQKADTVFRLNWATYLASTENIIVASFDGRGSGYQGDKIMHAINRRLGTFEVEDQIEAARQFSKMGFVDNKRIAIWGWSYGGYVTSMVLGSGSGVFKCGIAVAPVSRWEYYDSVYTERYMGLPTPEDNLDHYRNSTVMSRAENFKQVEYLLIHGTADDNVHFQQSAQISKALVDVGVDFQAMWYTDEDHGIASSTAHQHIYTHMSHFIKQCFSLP

Compound: CC(=O)N[C@@H](CC(C)C)C(=O)N[C@@H](CC(C)C)C(=O)N[C@H](C=O)CCCNC(=N)N [leupeptin]
- % Product [1]: 0%
- % Substrate [1]: 100%
- % Product [2]: 52.6%
- % Substrate [2]: 47.4%
- % Product [3]: 77.8%
- % Substrate [3]: 22.2%
- % Product [4]: 85.1%
- % Substrate [4]: 14.9%
- % Product [5]: 87.9%
- % Substrate [5]: 12.1%
- % Product [6]: 90.2%
- % Substrate [6]: 9.8%

Compound: NCCc1ccc(S(=O)(=O)F)cc1 [AEBSF]
- % Product [7]: 0%
- % Substrate [7]: 100%
- % Product [8]: 11.7%
- % Substrate [8]: 88.3%
- % Product [9]: 17.4%
- % Substrate [9]: 82.6%
- % Product [10]: 22.2%
- % Substrate [10]: 77.8%
- % Product [11]: 24.3%
- % Substrate [11]: 75.7%
- % Product [12]: 24.8%
- % Substrate [12]: 75.2%
